According to patent US5968929A, “Piperazino derivatives as neurokinin antagonists” (Schering Corporation, priority 1997, dated 1999):

How the values were obtained:
[1] = biological target: T1, human neurokinin 1 (NK1) receptor (Homo sapiens, UniProt P25103); test: Neurokinin receptor binding assay, NK1 ([3H]-Substance P, CHO cell membranes); settings: competition with [3H]-Substance P, Cheng and Prusoff
T1 construct: expressed in transfected cells; host or cells: Chinese hamster ovary (CHO) cells, membranes
Method: (§1) Neurokinin Receptor Binding Assay(s)
(§2) Chinese Hamster ovary (CHO) cells transfected with the coding regions for the human neurokinin 1 (NK1) of the human neurokinin 2 (NK2) receptors are grown in Dulbecco's minimal essential medium supplemented with 10% fetal calf serum, 0.1 mM non-essential amino acids, 2 mM glutamine, 100 units/ml of penicillin and streptomycin, and 0.8 mg of G418/ml at 37° C. in a humidified atmosphere containing 5% CO2.
(§3) Cells are detached from T-175 flasks with a sterile solution containing 5 mM EDTA in phosphate buffered saline. Cells are harvested by centrifugation and washed in RPMI media at […] for 5 minutes. The pellet is resuspended in Tris-HCl(pH7.4) containing 1 uM phosphoramidon and 4 ug/ml of chymostatin at a cell density of 30×10^6 cells/ml. The suspension is then homogenized in a Brinkman Polytron (setting 5) for 30-45 seconds. The homogenate is centrifuged at 800×g for 5 min at 4° C. to collect unbroken cells and nuclei. The supernatant is centrifuged in a Sorvall RC5C at 19,000 rpm ([…]) for 30 min at 4° C. The pellet is resuspended, an aliquot is removed for a protein determination (BCA) and washed again. The resulting pellet is stored at -80° C.
(§4) Binding is initiated by the addition of 100 μl of membrane (10-20 μg) containing the human NK-1 or NK-2 receptor in a final volume of 200 μl. After 40 minutes at room temperature, the reaction is stopped by rapid filtration onto Whatman GF/C filters which have been presoaked in 0.3% polyethylenimine. Filters are washed 2 times with 3 ml of 50 mM Tris-HCl (pH7.4). Filters are added to 6 mls of Ready-Safe liquid scintillation cocktail and quantified by liquid scintillation spectrometry in a LKB 1219 RackBeta counter. Non-specific binding is determined by the addition of either 1 μM of CP-99994 (NK1) or 1 μM SR-48968 (NK2) (both synthesized by the chemistry department of Schering-Plough Research Institute).

[2] = biological target: T2, human neurokinin 2 (NK2) receptor (Homo sapiens, UniProt P21452); test: Neurokinin receptor binding assay, NK2 ([3H]-Neurokinin A, CHO cell membranes); settings: competition with [3H]-Neurokinin A, Cheng and Prusoff
T2 construct: expressed in transfected cells; host or cells: Chinese hamster ovary (CHO) cells, membranes
T2 sequence (P21452 1-398): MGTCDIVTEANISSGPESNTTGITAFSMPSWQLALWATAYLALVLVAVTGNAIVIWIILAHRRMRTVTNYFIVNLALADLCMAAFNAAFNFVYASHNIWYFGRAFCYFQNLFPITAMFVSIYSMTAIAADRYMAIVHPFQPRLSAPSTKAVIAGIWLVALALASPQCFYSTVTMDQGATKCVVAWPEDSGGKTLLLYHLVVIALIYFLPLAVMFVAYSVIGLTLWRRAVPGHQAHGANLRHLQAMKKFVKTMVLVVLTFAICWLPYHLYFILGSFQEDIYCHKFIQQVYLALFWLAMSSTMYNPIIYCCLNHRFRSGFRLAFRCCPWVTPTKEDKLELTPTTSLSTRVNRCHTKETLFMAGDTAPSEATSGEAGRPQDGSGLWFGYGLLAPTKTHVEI
Method: as §1, §2, §3, §4

T1 sequence (P25103 whole entry): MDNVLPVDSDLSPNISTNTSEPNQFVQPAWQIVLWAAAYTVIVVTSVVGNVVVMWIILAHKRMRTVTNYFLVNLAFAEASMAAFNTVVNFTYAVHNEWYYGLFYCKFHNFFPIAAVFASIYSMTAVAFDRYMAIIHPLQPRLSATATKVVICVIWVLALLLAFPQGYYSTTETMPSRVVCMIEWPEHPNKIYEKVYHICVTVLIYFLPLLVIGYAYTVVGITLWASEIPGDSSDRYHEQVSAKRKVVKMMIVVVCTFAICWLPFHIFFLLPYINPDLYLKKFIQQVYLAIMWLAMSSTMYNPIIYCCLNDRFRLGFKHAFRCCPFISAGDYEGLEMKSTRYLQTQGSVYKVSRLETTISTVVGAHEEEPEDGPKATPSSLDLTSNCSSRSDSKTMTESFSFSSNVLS

## Cc1cc(C)cc(C(=O)N2CCN(C(=O)CCN3C[C@@H]4C[C@H]3CN4C(=O)[C@H](Cc3ccccc3)NC(=O)OC(C)(C)C)[C@H](c3ccc(Cl)c(Cl)c3)C2)c1
[1]
  Ki: 45 nM
[2]
  Ki: 14 nM

## Cc1cc(C)cc(C(=O)N2CCN(C(=O)CCN3C[C@@H]4C[C@H]3CN4C(=O)[C@@H](N)Cc3cccs3)[C@H](c3ccc(Cl)c(Cl)c3)C2)c1
[1]
  Ki: 16 nM
[2]
  Ki: 0.35 nM

## CNC(=O)N[C@H](Cc1ccccc1)C(=O)N1C[C@@H]2C[C@H]1CN2CCC(=O)N1CCN(C(=O)c2cc(C)cc(C)c2)C[C@H]1c1ccc(Cl)c(Cl)c1 [35 (R = --CH3)]
[1]
  Ki: 6.3 nM
[2]
  Ki: 0.93 nM

## Cc1cc(C)cc(C(=O)N2CCN(C(=O)CCN3C[C@@H]4C[C@H]3CN4C(=NC#N)Nc3ccccc3)[C@H](c3ccc(Cl)c(Cl)c3)C2)c1 [Example 30]
[1]
  Ki: 34 nM
[2]
  Ki: 24 nM

## Cc1cc(C)cc(C(=O)N2CCN(C(=O)CO[C@@H]3C[C@@H]4C[C@H]3CN4Cc3ccsc3)[C@H](c3ccc(Cl)c(Cl)c3)C2)c1 [Example 50, 2(R)-(3,4-Dichlorophenyl)-4-(3,5-dimethylbenzoyl)-1-[[[exo-2-(3-thienylmethyl)-1(S),4(S)-2-azabicyclo[2.2.1]heptan-5-yl)oxy]acetyl]piperazine]
[1]
  Ki: 1.8 nM
[2]
  Ki: 2.6 nM

## CC(=O)Nc1ccc(CN2C[C@@H]3C[C@H]2C[C@H]3OCC(=O)N2CCN(C(=O)c3cc(C)cc(C)c3)C[C@H]2c2ccc(Cl)c(Cl)c2)cc1 [Example 51]
[1]
  Ki: 1.5 nM
[2]
  Ki: 4.4 nM

## Cc1cc(C)cc(C(=O)N2CCN(C(=O)CO[C@H]3C[C@H]4CC[C@@H](C3)N4C(=O)OC(C)(C)C)[C@H](c3ccc(Cl)c(Cl)c3)C2)c1 [Example 56, (Endo)-1,1-dimethylethyl 3-[2-[2(R)-(3,4-dichlorophenyl)-4-(3,5-dimethylbenzoyl)-1-piperazinyl]-2-oxoethoxy]-8-aza[3.2.1]octane-8-carboxylate]
[1]
  Ki: > 100 nM
[2]
  Ki: 55 nM

## CNC(=O)c1ccc(CN2[C@@H]3CC[C@H]2C[C@@H](OCC(=O)N2CCN(C(=O)c4cc(C)cc(C)c4)C[C@H]2c2ccc(Cl)c(Cl)c2)C3)cc1 [Example 58]
[1]
  Ki: 19 nM
[2]
  Ki: 57 nM

## Cc1cc(C)cc(C(=O)N2CCN(C(=O)CN[C@H]3C[C@H]4CC[C@@H](C3)N4C(=O)OC(C)(C)C)[C@H](c3ccc(Cl)c(Cl)c3)C2)c1 [Example 67]
[1]
  Ki: 159 nM
[2]
  Ki: 9.3 nM
